From patent US9486506B2 (Novo Nordisk A/S, priority 2011, dated 2016) come the findings set out here.

One series has as its target T1, glucagon receptor (Homo sapiens, UniProt P47871).
T1 construct: expressed in transfected cells
Nature of the series: Assay (I) Glucagon activity (cAMP biosensor, FLIPR). It counts as cell-based.

A short description of series [1]: Assay (X) Chemical stability assessment by RP-UPLC. The format is physicochemical. Particulars: pH 8.15, 14 days at 37° C. vs 5° C., 333 μM. How it is done:
Chemical Stability Assessment
Lyophilized samples were dissolved in buffer (see below for detailed compositions) to a final concentration of 333 μM and a pH of 8.15, and were incubated for 14 days at 5° C. and 37° C. followed by RP-UPLC analysis. Purity was defined as the area percentage of the main peak in relation to the total area of all integrated peaks in each chromatogram. Purity loss after 14 days at 37° C. was determined as the difference in purity between the samples incubated at 5° C. and 37° C., divided by the purity of the sample after incubation for 14 days at 5° C.
RP-UPLC analysis was performed using a Waters BEH130 2.1 mm×150 mm, 1.7 μm column operated at 50° C. and a flow rate of 0.4 mL/min using a mobile phase system consisting of typically A: 50 mM Phosphate, 10 w/w % Acetonitrile pH 3 and B: 80 v/v Acetonitrile. UV-detection was performed at 215 nm. The typical gradient profile used for most of the samples is shown below.
For some individual analogues eluting at substantially different retention times compared with the majority of analogues, some adjustments to the gradient profile were made to better enable purity assessment comparison across samples. Also the composition of the channel B mobile phase component was in some of the analyses exchanged for a 90 v/v % Acetonitrile solvent solution in an attempt to better handle carry-over of material from one injection to the next in the sequence. This was however compensated for by recalculating the gradient profile appropriately.
Buffer: • 50 mM Dinatriumphosphatdihydrat • 184 mM Propylenglycol • 58 mM Phenol • pH adjusted to 8.15 with H3PO4. In cases where pH was adjusted to 8.15 after re-suspension of analogues, 0.2 M NaOH was used. Assay (XI) Pharmacokinetic Study in Minipigs

SMILES strings stand for the structures. Numbered stars: 1 amine (or outer) side, 2 acyl side, 3 side chain; on linkers, the order of the positions; unused ones are H or OH. Side chains are listed from the residue outwards. Peptide text beside a SMILES is read from it. * marks the point of attachment. C18 diacid = O=C(O)CCCCCCCCCCCCCCCCC(=O)*; γGlu = O=C(O)[C@H](CCC(=O)[*:2])N[*:1]; AEEA = NCCOCCOCC(=O)O

T1 sequence (P47871 26-477): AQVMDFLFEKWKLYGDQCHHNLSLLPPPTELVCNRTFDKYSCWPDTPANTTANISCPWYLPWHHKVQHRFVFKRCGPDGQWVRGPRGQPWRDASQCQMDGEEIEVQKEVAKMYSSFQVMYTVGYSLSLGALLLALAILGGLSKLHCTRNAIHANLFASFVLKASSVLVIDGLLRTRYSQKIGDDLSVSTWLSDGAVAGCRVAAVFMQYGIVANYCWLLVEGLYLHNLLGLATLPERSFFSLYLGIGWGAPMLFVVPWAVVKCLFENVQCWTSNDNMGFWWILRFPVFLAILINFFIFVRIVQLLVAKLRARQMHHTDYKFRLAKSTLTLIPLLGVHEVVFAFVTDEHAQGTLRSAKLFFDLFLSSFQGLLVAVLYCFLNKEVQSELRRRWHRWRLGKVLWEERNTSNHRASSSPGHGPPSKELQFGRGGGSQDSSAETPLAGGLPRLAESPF

Usually EC50 stands for the concentration at which the effect is half-maximal. `CC(C)C[C@H](NC(=O)[C@H](Cc1c[nH]c2ccccc12)NC(=O)[C@H](CCCCNC(=O)CC[C@H](NC(=O)CC[C@H](NC(=O)COCCOCCNC(=O)COCCOCCNC(=O)CC[C@H](NC(=O)CCCCCCCCCCCCCCCCC(=O)O)C(=O)O)C(=O)O)C(=O)O)NC(=O)[C@@H](NC(=O)[C@H](Cc1ccccc1)NC(=O)[C@H](CC(=O)O)NC(=O)[C@H](CCC(N)=O)NC(=O)[C@H](C)NC(=O)[C@H](CCCNC(=N)N)NC(=O)[C@H](CCCNC(=N)N)NC(=O)[C@@H](NC(=O)[C@H](CC(=O)O)NC(=O)[C@H](CC(C)C)NC(=O)[C@H](Cc1ccc(O)cc1)NC(=O)[C@H](CCCNC(=N)N)NC(=O)[C@H](CO)NC(=O)[C@H](Cc1ccc(O)cc1)NC(=O)[C@H](CC(=O)O)NC(=O)[C@H](CO)NC(=O)[C@@H](NC(=O)[C@H](Cc1ccccc1)NC(=O)[C@@H](NC(=O)CNC(=O)[C@H](CCC(N)=O)NC(=O)[C@H](CO)NC(=O)[C@@H](N)Cc1c[nH]cn1)[C@@H](C)O)[C@@H](C)O)[C@@H](C)O)C(C)C)C(=O)N[C@@H](CCC(=O)O)C(=O)N[C@@H](CO)C(=O)N[C@H](C(=O)O)[C@@H](C)O` [Example 44, N^ε24-[(4S)-4-carboxy-4-[[(4S)-4-carboxy-4-[[2-[2-[2-[[2-[2-[2-[[(4S)-4-carboxy-4-(17-carboxyheptadecanoylamino)butanoyl]amino]ethoxy]ethoxy]acetyl]amino]ethoxy]ethoxy]acetyl]amino]butanoyl]amino]butanoyl]-[Arg12,Thr16,Lys24,Glu27,Ser28]-Glucagon] (H-HSQGTFTSDYSRYLDTRRAQDFVK([γGlu-γGlu-AEEA-AEEA-γGlu-C18 diacid])WLEST-OH) yielded an EC50 at glucagon receptor of 0.176 nM. For the same compound, the “Chemical stability [Purity loss/14 days 37 C.]” value in series [1] is 10.5%.
Compound `CC(C)C[C@H](NC(=O)[C@H](Cc1ccc(O)cc1)NC(=O)[C@H](CCCCN)NC(=O)[C@H](CO)NC(=O)[C@H](Cc1ccc(O)cc1)NC(=O)[C@H](CC(=O)O)NC(=O)[C@H](CO)NC(=O)[C@@H](NC(=O)[C@H](Cc1ccccc1)NC(=O)[C@@H](NC(=O)CNC(=O)[C@H](CCC(N)=O)NC(=O)[C@H](CO)NC(=O)[C@@H](N)Cc1c[nH]cn1)[C@@H](C)O)[C@@H](C)O)C(=O)N[C@@H](CCC(=O)O)C(=O)N[C@@H](CO)C(=O)N[C@@H](CCCNC(=N)N)C(=O)N[C@@H](CCCNC(=N)N)C(=O)N[C@@H](C)C(=O)N[C@@H](CCC(N)=O)C(=O)N[C@@H](CC(=O)O)C(=O)N[C@@H](Cc1ccccc1)C(=O)N[C@H](C(=O)N[C@@H](CCCCNC(=O)CC[C@H](NC(=O)CC[C@H](NC(=O)COCCOCCNC(=O)CC[C@H](NC(=O)CCCCCCCCCCCCCCCCC(=O)O)C(=O)O)C(=O)O)C(=O)O)C(=O)N[C@@H](Cc1c[nH]c2ccccc12)C(=O)N[C@@H](CC(C)C)C(=O)N[C@@H](CC(C)C)C(=O)N[C@@H](CO)C(=O)N[C@H](C(=O)O)[C@@H](C)O)C(C)C` [Example 1, N^ε24-[(4S)-4-carboxy-4-[[(4S)-4-carboxy-4-[[2-[2-[2-[[(4S)-4-carboxy-4-(17-carboxyheptadecanoylamino)butanoyl]amino]ethoxy]ethoxy]acetyl]amino]butanoyl]amino]butanoyl]-[Glu^15,Lys^24,Leu^27,Ser^28]-Glucagon] returned a 50% effective concentration (EC50) at glucagon receptor of 0.28 nM. Also, the “Chemical stability [Purity loss/14 days 37 C.]” value in series [1] came out at 7.6%.
With `CC(C)C[C@H](NC(=O)[C@H](Cc1c[nH]c2ccccc12)NC(=O)[C@H](CCCCNC(=O)CC[C@H](NC(=O)COCCOCCNC(=O)COCCOCCNC(=O)CC[C@H](NC(=O)CC[C@H](NC(=O)CCCCCCCCCCCCCCCCC(=O)O)C(=O)O)C(=O)O)C(=O)O)NC(=O)[C@@H](NC(=O)[C@H](Cc1ccccc1)NC(=O)[C@H](CCC(=O)O)NC(=O)[C@H](CCC(N)=O)NC(=O)[C@H](C)NC(=O)[C@H](CCCNC(=N)N)NC(=O)[C@H](CCCNC(=N)N)NC(=O)[C@@H](NC(=O)[C@H](CC(=O)O)NC(=O)[C@H](CC(C)C)NC(=O)[C@H](Cc1ccc(O)cc1)NC(=O)[C@H](CCCNC(=N)N)NC(=O)[C@H](CO)NC(=O)[C@@H](NC(=O)[C@H](CC(=O)O)NC(=O)[C@H](CO)NC(=O)[C@@H](NC(=O)[C@H](Cc1ccccc1)NC(=O)[C@@H](NC(=O)CNC(=O)[C@H](CCC(N)=O)NC(=O)[C@H](CO)NC(=O)[C@@H](N)Cc1c[nH]cn1)[C@@H](C)O)[C@@H](C)O)C(C)C)[C@@H](C)O)C(C)C)C(=O)N[C@@H](CC(C)C)C(=O)N[C@@H](CO)C(=O)N[C@H](C(=O)O)[C@@H](C)O` [Example 64, N^ε24-[(4S)-4-carboxy-4-[[2-[2-[2-[[2-[2-[2-[[(4S)-4-carboxy-4-[[(4S)-4-carboxy-4-(17-carboxyheptadecanoylamino)butanoyl]amino]butanoyl]amino]ethoxy]ethoxy]acetyl]amino]ethoxy]ethoxy]acetyl]amino]butanoyl]-[Val10,Arg12,Thr16,Glu21,Lys24,Leu27,Ser28]-Glucagon] (H-HSQGTFTSDVSRYLDTRRAQEFVK([γGlu-AEEA-AEEA-γGlu-γGlu-C18 diacid])WLLST-OH), a half-maximal effect at glucagon receptor (EC50) was put at 0.176 nM. The “Chemical stability [Purity loss/14 days 37 C.]” value in series [1] is 5.1%.
The compound `CC(C)C[C@H](NC(=O)[C@H](Cc1c[nH]c2ccccc12)NC(=O)[C@H](CCCCNC(=O)COCCOCCNC(=O)CC[C@H](NC(=O)CC[C@H](NC(=O)COCCOCCNC(=O)CC[C@H](NC(=O)CCCCCCCCCCCCCCCCC(=O)O)C(=O)O)C(=O)O)C(=O)O)NC(=O)[C@@H](NC(=O)[C@H](Cc1ccccc1)NC(=O)[C@H](CC(=O)O)NC(=O)[C@H](CCC(N)=O)NC(=O)[C@H](C)NC(=O)[C@H](CCCNC(=N)N)NC(=O)[C@H](CCCNC(=N)N)NC(=O)[C@@H](NC(=O)[C@H](CC(=O)O)NC(=O)[C@H](CC(C)C)NC(=O)[C@H](Cc1ccc(O)cc1)NC(=O)[C@H](CCCCN)NC(=O)[C@H](CO)NC(=O)[C@H](Cc1ccc(O)cc1)NC(=O)[C@H](CC(=O)O)NC(=O)[C@H](CO)NC(=O)[C@@H](NC(=O)[C@H](Cc1ccccc1)NC(=O)[C@@H](NC(=O)CNC(=O)[C@H](CCC(N)=O)NC(=O)[C@H](CO)NC(=O)[C@@H](N)Cc1c[nH]cn1)[C@@H](C)O)[C@@H](C)O)[C@@H](C)O)C(C)C)C(=O)N[C@@H](CC(C)C)C(=O)N[C@@H](CO)C(=O)N[C@H](C(=O)O)[C@@H](C)O` [Example 40, N^ε24-[2-[2-[2-[[(4S)-4-carboxy-4-[[(4S)-4-carboxy-4-[[2-[2-[2-[[(4S)-4-carboxy-4-(17-carboxyheptadecanoylamino)butanoyl]amino]ethoxy]ethoxy]acetyl]amino]butanoyl]amino]butanoyl]amino]ethoxy]ethoxy]acetyl]-[Thr16,Lys24,Leu27,Ser28]-Glucagon] returned an EC50 at glucagon receptor of 0.078 nM. Further, the “Chemical stability [Purity loss/14 days 37 C.]” value in series [1] was determined as 7.5%.
Take `CC(C)C[C@H](NC(=O)[C@H](Cc1ccc(O)cc1)NC(=O)[C@H](CCCNC(=N)N)NC(=O)[C@H](CO)NC(=O)[C@H](Cc1ccc(O)cc1)NC(=O)[C@H](CC(=O)O)NC(=O)[C@H](CO)NC(=O)[C@@H](NC(=O)[C@H](Cc1ccccc1)NC(=O)[C@@H](NC(=O)CNC(=O)[C@H](CCC(N)=O)NC(=O)[C@H](CO)NC(=O)[C@@H](N)Cc1c[nH]cn1)[C@@H](C)O)[C@@H](C)O)C(=O)N[C@@H](CC(=O)O)C(=O)N[C@@H](Cc1ccccc1)C(=O)N[C@@H](CCCNC(=N)N)C(=O)N[C@@H](CCCNC(=N)N)C(=O)N[C@@H](C)C(=O)N[C@@H](CCC(N)=O)C(=O)N[C@@H](CC(=O)O)C(=O)N[C@@H](Cc1ccccc1)C(=O)N[C@H](C(=O)N[C@@H](CCCCNC(=O)CC[C@H](NC(=O)CC[C@H](NC(=O)COCCOCCNC(=O)COCCOCCNC(=O)CC[C@H](NC(=O)CCCCCCCCCCCCCCCCC(=O)O)C(=O)O)C(=O)O)C(=O)O)C(=O)N[C@@H](Cc1c[nH]c2ccccc12)C(=O)N[C@@H](CC(C)C)C(=O)N[C@@H](CC(C)C)C(=O)N[C@@H](CO)C(=O)N[C@H](C(=O)O)[C@@H](C)O)C(C)C` [Example 17, N^ε24-[(4S)-4-carboxy-4-[[(4S)-4-carboxy-4-[[2-[2-[2-[[2-[2-[2-[[(4S)-4-carboxy-4-(17-carboxyheptadecanoylamino)butanoyl]amino]ethoxy]ethoxy]acetyl]amino]ethoxy]ethoxy]acetyl]amino]butanoyl]amino]butanoyl]-[Arg^12,Phe^16,Lys^24,Leu^27,Ser^28]-Glucagon] (H-HSQGTFTSDYSRYLDFRRAQDFVK([γGlu-γGlu-AEEA-AEEA-γGlu-C18 diacid])WLLST-OH): the response at glucagon receptor was half-maximal at 1.64 nM (EC50). The “Chemical stability [Purity loss/14 days 37 C.]” value in series [1] is on record as 3.1%.
